Legend:
[1] = molecular target: EGFR (human) (UniProt P00533)
[2] = molecular target: EGFR (Human), P00533 [T790M/L858R]
[3] = molecular target: EGFR (Human), P00533 [T790M/L858R]; settings: baf3
[4] = molecular target: EGFR (Human), P00533 [Assessment of EGFR-Del T790M Dependent Cell Proliferation in BaF3 Cells]
[5] = molecular target: EGFR (human), P00533 [L858R]
Sequence of EGFR (human), P00533 [L858R] (P00533 whole entry L858R, looked up): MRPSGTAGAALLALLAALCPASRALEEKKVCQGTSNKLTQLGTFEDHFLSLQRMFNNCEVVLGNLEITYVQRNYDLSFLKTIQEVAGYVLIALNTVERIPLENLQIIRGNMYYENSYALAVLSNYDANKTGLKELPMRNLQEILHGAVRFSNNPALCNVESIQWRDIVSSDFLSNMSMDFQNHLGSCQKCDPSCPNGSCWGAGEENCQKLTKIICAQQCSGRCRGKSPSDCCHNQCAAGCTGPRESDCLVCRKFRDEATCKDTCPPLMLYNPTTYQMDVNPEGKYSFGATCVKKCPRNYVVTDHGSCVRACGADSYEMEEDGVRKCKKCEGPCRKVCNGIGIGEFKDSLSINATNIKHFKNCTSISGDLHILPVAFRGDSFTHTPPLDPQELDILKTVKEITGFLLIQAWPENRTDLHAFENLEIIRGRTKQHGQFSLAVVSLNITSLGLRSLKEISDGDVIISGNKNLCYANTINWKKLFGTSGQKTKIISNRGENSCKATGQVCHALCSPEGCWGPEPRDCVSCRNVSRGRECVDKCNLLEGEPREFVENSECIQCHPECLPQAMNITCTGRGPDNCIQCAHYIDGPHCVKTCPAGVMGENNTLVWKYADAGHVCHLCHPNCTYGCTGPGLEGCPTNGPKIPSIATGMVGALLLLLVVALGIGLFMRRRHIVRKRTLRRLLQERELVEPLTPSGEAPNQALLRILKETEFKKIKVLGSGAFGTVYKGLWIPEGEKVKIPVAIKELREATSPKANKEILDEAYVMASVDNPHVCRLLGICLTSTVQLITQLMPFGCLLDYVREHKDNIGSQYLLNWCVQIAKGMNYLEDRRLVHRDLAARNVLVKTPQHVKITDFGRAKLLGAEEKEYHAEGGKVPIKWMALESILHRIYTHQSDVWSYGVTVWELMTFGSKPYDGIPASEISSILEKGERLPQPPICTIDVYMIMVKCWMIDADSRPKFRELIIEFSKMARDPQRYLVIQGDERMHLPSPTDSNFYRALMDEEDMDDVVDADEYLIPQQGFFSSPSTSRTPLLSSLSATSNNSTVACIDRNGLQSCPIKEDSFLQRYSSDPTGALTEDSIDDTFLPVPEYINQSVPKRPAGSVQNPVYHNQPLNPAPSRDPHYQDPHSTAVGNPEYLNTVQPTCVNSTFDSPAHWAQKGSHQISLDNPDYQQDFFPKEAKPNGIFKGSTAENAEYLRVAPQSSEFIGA

Sequence of EGFR (Human), P00533 [Assessment of EGFR-Del T790M Dependent Cell Proliferation in BaF3 Cells] (P00533 whole entry, looked up, stated change not applied): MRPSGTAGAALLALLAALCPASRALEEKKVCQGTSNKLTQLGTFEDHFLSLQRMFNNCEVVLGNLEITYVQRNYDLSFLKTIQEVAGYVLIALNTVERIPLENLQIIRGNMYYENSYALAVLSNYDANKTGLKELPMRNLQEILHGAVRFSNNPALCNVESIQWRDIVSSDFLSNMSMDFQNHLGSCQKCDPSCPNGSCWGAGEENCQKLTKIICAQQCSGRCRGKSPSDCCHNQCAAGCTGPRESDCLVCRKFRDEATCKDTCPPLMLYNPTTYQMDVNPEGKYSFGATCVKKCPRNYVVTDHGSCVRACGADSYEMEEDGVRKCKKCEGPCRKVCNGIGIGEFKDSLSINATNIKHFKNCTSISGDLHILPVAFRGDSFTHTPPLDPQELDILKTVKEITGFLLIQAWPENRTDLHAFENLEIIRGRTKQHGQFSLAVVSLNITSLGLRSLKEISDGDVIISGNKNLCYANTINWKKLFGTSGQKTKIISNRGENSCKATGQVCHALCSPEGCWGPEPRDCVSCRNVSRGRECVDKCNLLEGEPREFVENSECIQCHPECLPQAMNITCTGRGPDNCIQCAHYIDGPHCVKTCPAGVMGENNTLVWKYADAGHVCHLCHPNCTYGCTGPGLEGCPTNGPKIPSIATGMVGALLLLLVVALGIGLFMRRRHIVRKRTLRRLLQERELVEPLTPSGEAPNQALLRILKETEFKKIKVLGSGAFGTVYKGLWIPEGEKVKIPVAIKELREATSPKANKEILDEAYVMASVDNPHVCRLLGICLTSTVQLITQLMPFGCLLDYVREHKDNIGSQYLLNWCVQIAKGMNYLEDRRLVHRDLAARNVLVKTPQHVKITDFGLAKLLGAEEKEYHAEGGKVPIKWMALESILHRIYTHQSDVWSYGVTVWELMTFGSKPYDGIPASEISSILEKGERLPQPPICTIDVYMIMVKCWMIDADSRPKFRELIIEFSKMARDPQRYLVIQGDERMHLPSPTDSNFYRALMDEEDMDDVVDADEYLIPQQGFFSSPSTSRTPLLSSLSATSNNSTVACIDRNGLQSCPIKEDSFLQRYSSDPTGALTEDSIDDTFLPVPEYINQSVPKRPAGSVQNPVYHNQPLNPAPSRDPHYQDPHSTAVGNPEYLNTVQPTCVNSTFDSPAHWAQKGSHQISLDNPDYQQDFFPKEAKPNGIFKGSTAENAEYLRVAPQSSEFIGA
Sequence of EGFR (human) (P00533 whole entry, looked up): as the sequence (P00533 whole entry, looked up, stated change not applied) above
Sequence of EGFR (Human), P00533 [T790M/L858R] (P00533 whole entry T790M/L858R, looked up): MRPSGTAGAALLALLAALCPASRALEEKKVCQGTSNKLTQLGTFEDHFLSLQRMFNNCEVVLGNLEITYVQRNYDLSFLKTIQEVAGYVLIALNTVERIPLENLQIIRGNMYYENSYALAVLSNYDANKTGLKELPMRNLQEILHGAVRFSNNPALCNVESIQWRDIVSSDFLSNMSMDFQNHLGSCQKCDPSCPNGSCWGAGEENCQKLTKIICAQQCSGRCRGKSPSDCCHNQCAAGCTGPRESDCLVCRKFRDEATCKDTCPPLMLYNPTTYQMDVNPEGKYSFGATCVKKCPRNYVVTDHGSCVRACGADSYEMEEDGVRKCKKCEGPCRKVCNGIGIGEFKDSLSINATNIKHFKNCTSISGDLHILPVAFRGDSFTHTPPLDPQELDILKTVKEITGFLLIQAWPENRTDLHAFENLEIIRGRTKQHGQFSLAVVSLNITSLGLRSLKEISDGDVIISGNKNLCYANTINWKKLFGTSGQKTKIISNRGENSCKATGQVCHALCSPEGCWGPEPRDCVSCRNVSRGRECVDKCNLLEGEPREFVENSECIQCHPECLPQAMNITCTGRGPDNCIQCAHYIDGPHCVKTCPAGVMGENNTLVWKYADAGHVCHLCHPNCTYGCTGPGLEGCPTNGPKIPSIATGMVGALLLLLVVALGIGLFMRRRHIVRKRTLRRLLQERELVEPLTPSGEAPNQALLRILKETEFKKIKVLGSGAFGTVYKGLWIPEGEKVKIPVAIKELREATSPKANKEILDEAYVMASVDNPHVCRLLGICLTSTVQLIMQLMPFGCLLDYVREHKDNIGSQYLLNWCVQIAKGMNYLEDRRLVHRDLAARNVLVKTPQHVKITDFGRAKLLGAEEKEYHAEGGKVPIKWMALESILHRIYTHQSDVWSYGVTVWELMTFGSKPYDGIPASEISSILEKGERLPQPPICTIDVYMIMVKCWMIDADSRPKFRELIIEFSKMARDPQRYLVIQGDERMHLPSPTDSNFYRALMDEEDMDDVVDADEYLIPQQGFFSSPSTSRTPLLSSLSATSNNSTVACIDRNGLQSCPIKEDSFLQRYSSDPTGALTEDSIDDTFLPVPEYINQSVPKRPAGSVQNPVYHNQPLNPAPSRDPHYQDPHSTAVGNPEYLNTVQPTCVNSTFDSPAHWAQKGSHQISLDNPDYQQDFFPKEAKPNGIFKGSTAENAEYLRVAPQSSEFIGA

Row | SMILES | IC50 [1] [nM] | IC50 [2] [nM] | IC50 [3] [nM] | IC50 [4] [nM] | IC50 [5] [nM]
1 | C=CC(=O)Nc1ccc(OC)c(Nc2ncc(Cl)c(Nc3ccc(OCCN(C)C)cc3P(C)(C)=O)n2)c1 | < 50 | < 50 | < 50 | < 50 | < 50
2 | C=CC(=O)Nc1cc(Nc2ncc(C3CC3)c(Nc3ccccc3P(C)(C)=O)n2)c(OC)cc1N(C)CCN(CC)CC | < 50 | < 50 | < 50 | < 50 | < 50
3 | C=CC(=O)Nc1cc(Nc2ncc(Cl)c(Nc3ccccc3P(C)(C)=O)n2)c(C)cc1OC(COC)CN(C)C (stereo not given) | < 50 | < 50 | < 50 | < 50 | < 50
4 | C=CC(=O)Nc1cc(Nc2ncc(Cl)c(Nc3ccccc3P(C)(C)=O)n2)c(OC)cc1N1CCCC(N(C)C)C1 (stereo not given) | < 50 | < 50 | < 50 | < 50 | < 50
5 | C=CC(=O)Nc1cc(Nc2ncc(Cl)c(Nc3ccccc3P(C)(C)=O)n2)c(Cl)cc1OC(COC)CN(C)C (stereo not given) | < 50 | < 50 | < 50 | < 50 | < 50
6 | COCC#CC(=O)Nc1cc(Nc2ncc(Cl)c(Nc3ccccc3P(C)(C)=O)n2)c(OC)cc1N1CCOCC1 | < 50 | < 50 | < 50 | < 50 | < 50
7 | C=CC(=O)Nc1cc(Nc2ncc(Cl)c(Nc3ccccc3P(C)(C)=O)n2)c(OC)cc1N1CCC(N2CCC2)C1 (stereo not given) | < 50 | < 50 | < 50 | < 50 | < 50
8 | C=CC(=O)Nc1cc(Nc2ncc(Cl)c(Nc3ccccc3P(C)(C)=O)n2)c(C)cc1C#CCN(C)C | < 50 | < 50 | < 50 | < 50 | < 50
9 | C=CC(=O)Nc1cc(Nc2ncc(Cl)c(Nc3ccccc3P(C)(C)=O)n2)c(OC)cc1O[C@@H]1CCCN(C)C1 | < 50 | < 50 | < 50 | < 50 | < 50
10 | C=C(CN1CCC(N2CCN(C)CC2)CC1)C(=O)Nc1ccc(OC)c(Nc2ncc(Cl)c(Nc3ccccc3P(C)(C)=O)n2)c1 | < 50 | < 50 | < 50 | < 50 | < 50
11 | C=CC(=O)Nc1cc(Nc2ncc(Cl)c(Nc3ccccc3P(C)(C)=O)n2)c(OC)cc1N1CCN(C2CCN(C)CC2)CC1 | < 50 | < 50 | 101 to 250 | 50 to 100 | < 50
12 | C=CC(=O)Nc1cc(Nc2ncc(Cl)c(Nc3ccccc3P(C)(C)=O)n2)c(OC)cc1C | < 50 | < 50 | < 50 | < 50 | < 50
13 | C=C(CN1CCCC1)C(=O)Nc1ccc(OC)c(Nc2ncc(Cl)c(Nc3ccccc3P(C)(C)=O)n2)c1 | < 50 | < 50 | < 50 | < 50 | < 50
14 | C=CC(=O)Nc1cc(Nc2ncc(Cl)c(Nc3ccccc3P(C)(C)=O)n2)c(Cl)cc1C#CCN(C)C | < 50 | < 50 | < 50 | < 50 | < 50
15 | C=CC(=O)Nc1cc(Nc2ncc(Cl)c(Nc3ccccc3P(C)(C)=O)n2)c(OC)cc1OCCCN1CCOCC1 | 101 to 250 | < 50 | 101 to 250 | 101 to 250 | < 50
16 | C=CC(=O)Nc1cc(Nc2ncc(Cl)c(Nc3ccccc3P(C)(C)=O)n2)c(OC)cc1OC1CCCN(CCOC)C1 (stereo not given) | < 50 | < 50 | < 50 | < 50 | < 50
17 | COc1cc(F)c(NC(=O)C#CCCN2CCCCC2)cc1Nc1ncc(Cl)c(Nc2ccccc2P(C)(C)=O)n1 | < 50 | < 50 | < 50 | < 50 | < 50
18 | C=CC(=O)Nc1ccc(OC)c(Nc2ncc(Cl)c(Nc3ccc(OCCN4CCCCC4)cc3P(C)(C)=O)n2)c1 | < 50 | < 50 | < 50 | < 50 | < 50
